Source: patent US9481682B2, “Substituted benzamides and substituted pyridinecarboxamides as Btk inhibitors” (MERCK SHARP & DOHME CORP., priority 2013, dated 2016)
Where two headings read alike, the source gives them in different places.

Columns and labels:
[1] = system: HeLa cells; assay: [3H]Adenosine uptake functional cellular assay; type: cell-based; conditions: accumulation of [3H]adenosine into HeLa cells, read-out: Adenosine uptake inhibition IC50
Protocol: Compounds are also screened in an adenosine uptake functional cellular assay using the protocol described below. The adenosine uptake inhibition assay may be used to identify compounds with the potential for a negative cardiovascular side effect.
Adenosine uptake activity was determined by monitoring the accumulation of tritiated adenosine into HeLa cells (ATCC catalog #CCL-2) using a PMT-based radiometric detection instrument. […] These cells were incubated overnight at 37° C. in a humidified atmosphere with 5% (v/v) CO2. After this time the growth medium was removed and replaced with 40 μL assay medium comprising: Hanks balanced salts solution (HBSS; Thermo Fisher Catalog #SH30268.01)+5% (v/v) FBS. […] Following this incubation, 20 μL of 500 nM [^3H]adenosine (American Radiolabeled Chemicals Inc. […] The amount of radiolabel accumulation was then determined using a Perkin Elmer Topcount NXT microplate reader. In brief, HeLa cells adhere to the bottom of the Cytostar-T plate, uptake of [^3H]adenosine into these cells brings the radiolabel into sufficient proximity to excite the scintillant in the base of the plates. These events are captured by single PMT, time-resolved coincidence counting. IC50 values were determined by 4 parameter robust fit of counts per second values vs. (Log10) compound concentrations.

[2] = biological target: hBTK (recombinant full-length BTK) (Homo sapiens (Human), UniProt Q06187); assay: BTK enzymatic activity, LANCE TR-FRET assay; type: biochemical; conditions: 50 pM hBTK, 2 μM biotin-A5-peptide, 25 μM ATP; 60 minute compound & enzyme incubation
Protocol: BTK enzymatic activity was determined with the LANCE (Lanthanide Chelate Excite) TR-FRET (Time-resolved fluorescence resonance energy transfer) assay. […] Phosphorylation reactions were allowed to proceed for 120 minutes. […] After 60 minutes incubation with detection reagents, reaction plates were read on a PerkinElmer EnVision plate reader using standard TR-FRET protocol. […] IC50 values were determined by 4 parameter robust fit of TR-FRET ratio values vs. (Log10) compound concentrations.

[3] = Homo sapiens, compound range 10 μM to 0.032 nM

hBTK (recombinant full-length BTK), sequence (Q06187 whole entry): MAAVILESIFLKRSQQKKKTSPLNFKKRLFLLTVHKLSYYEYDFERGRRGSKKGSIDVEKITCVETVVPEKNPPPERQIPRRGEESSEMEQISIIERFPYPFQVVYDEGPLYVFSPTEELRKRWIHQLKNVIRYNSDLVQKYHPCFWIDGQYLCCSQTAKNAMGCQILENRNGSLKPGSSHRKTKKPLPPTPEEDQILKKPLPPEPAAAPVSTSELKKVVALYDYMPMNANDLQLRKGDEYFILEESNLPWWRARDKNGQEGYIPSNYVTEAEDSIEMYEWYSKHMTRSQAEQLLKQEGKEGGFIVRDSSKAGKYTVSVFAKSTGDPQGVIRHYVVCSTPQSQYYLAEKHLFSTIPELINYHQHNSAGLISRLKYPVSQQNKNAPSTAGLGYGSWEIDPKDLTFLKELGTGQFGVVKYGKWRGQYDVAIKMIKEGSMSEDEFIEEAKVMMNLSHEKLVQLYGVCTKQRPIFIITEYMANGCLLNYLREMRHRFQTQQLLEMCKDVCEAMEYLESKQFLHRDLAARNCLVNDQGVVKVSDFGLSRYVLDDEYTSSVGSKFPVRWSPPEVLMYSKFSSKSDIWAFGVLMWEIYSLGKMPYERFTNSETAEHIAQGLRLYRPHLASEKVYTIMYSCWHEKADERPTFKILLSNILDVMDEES

SMILES	IC50 [1, 3] [nM]	IC50 [2] [nM]	IC50 ([1]; compound range 10 μM to […]) [nM]
COCCOc1cc(C(=O)Nc2cccc(C(F)(F)F)c2)ccc1-c1nc([C@@H]2CC[C@H]3CCC(=O)N3C2)n2ccnc(N)c12 [Example 199, 4-(8-amino-3-((6R,8aS)-3-oxooctahydroindolizin-6-yl)imidazo[1,5-a]pyrazin-1-yl)-3-(2-methoxyethoxy)-N-(3-(trifluoromethyl)phenyl)benzamide]	7090	1.9	–
Nc1nccn2c([C@H]3CC[C@H]4C[C@@H](O)C(=O)N4C3)nc(-c3ccc(C(=O)Nc4cc(C(F)(F)F)ccn4)cc3)c12 [Example 74, 4-{8-amino-3-[(2R,6S,8aS)-2-hydroxy-3-oxooctahydroindolizin-6-yl]imidazo[1,5-a]pyrazin-1-yl}-N-[4-(trifluoromethyl)pyridin-2-yl]benzamide]	1300	4.6	–
Nc1nccn2c([C@H]3CC[C@H]4CNCC(=O)N4C3)nc(-c3ccc(C(=O)Nc4cc(C(F)(F)F)ccn4)cc3)c12 [Example 57, 4-{8-amino-3-[(7S,9aS)-4-oxooctahydro-2H-pyrido[1,2-a]pyrazin-7-yl]imidazo[1,5-a]pyrazin-1-yl}-N-[4-(trifluoromethyl)pyridin-2-yl]benzamide]	10000	–	–
Cn1nc(NC(=O)c2ccc(-c3nc([C@@H]4CC[C@H]5CCC(=O)N5C4)n4ccnc(N)c34)c(OC3CNC3)c2)cc1C(F)(F)F [Example 149, 4-{8-amino-3-[(6R,8aS)-3-oxooctahydroindolizin-6-yl]imidazo[1,5-a]pyrazin-1-yl}-3-(azetidin-3-yloxy)-N-[1-methyl-5-(trifluoromethyl)-1H-pyrazol-3-yl]benzamide]	10000	–	–
NC(=O)c1cc(C(=O)Nc2cc(C(F)(F)F)ccn2)ccc1-c1nc([C@@H]2CC[C@H]3CCC(=O)N3C2)n2ccnc(N)c12 [Example 124, 4-{8-amino-3-[(6R,8aS)-3-oxooctahydroindolizin-6-yl]imidazo[1,5-a]pyrazin-1-yl}-N~1~-[4-(trifluoromethyl)pyridin-2-yl]benzene-1,3-dicarboxamide]	10000	–	–
Nc1nccn2c([C@@H]3CC[C@@H]4C[C@H](O)C(=O)N4C3)nc(-c3ccc(C(=O)Nc4cc(C(F)(F)F)ccn4)cc3)c12 [Example 72, 4-{8-amino-3-[(2S,6R,8aR)-2-hydroxy-3-oxooctahydroindolizin-6-yl]imidazo[1,5-a]pyrazin-1-yl}-N-[4-(trifluoromethyl)pyridin-2-yl]benzamide]	730	0.45	–
Nc1nccn2c([C@@H]3CC[C@H]4CCC(=O)N4C3)nc(-c3ccc(C(=O)Nc4cc(C(F)(F)F)ccn4)cc3OCCO)c12 [Example 200, 4-{8-amino-3-[(6R,8aS)-3-oxooctahydroindolizin-6-yl]imidazo[1,5-a]pyrazin-1-yl}-3-(2-hydroxyethoxy)-N-[4-(trifluoromethyl)pyridin-2-yl]benzamide]	5450	–	–
CN1CC[C@@H]2CC[C@@H](c3nc(-c4ccc(C(=O)Nc5cc(C(F)(F)F)ccn5)cc4)c4c(N)nccn34)CN2C1=O [Example 83, 4-(8-amino-3-((4aS,7R)-2-methyl-1-oxooctahydro-1H-pyrido[1,2-c]pyrimidin-7-yl)imidazol[1,5-a]pyrazin-1-yl)-N-(4-(trifluoromethyl)pyridin-2-yl)benzamide]	–	0.092	124
CN1CC[C@H]2CC[C@H](c3nc(-c4ccc(C(=O)Nc5cc(C(F)(F)F)ccn5)cc4)c4c(N)nccn34)CN2C1=O [Example 84, 4-(8-amino-3-((4aR,7S)-2-methyl-1-oxooctahydro-1H-pyrido[1,2-c]pyrimidin-7-yl)imidazol[1,5-a]pyrazin-1-yl)-N-(4-(trifluoromethyl)pyridin-2-yl)benzamide]	–	3	155
COc1cc(C(=O)Nc2cc(C(F)(F)F)ccn2)ccc1-c1nc([C@@H]2CC[C@H]3CN(C(=O)c4ccncc4)CC(=O)N3C2)n2ccnc(N)c12 [Example 85, 4-(8-amino-3-((7R,9aS)-2-isonicotinoyl-4-oxooctahydro-1H-pyrido[1,2-a]pyrazin-7-yl)imidazo[1,5-a]pyrazin-1-yl)-3-methoxy-N-(4-(trifluoromethyl)pyridin-2-yl)benzamide]	2780	–	–
